Experimental data from ChEMBL document CHEMBL5233237, “Agonist and antagonist ligands of toll-like receptors 7 and 8: Ingenious tools for therapeutic purposes” (Eur J Med Chem, 2020).

Experiments:
Toll-like receptor 8 [1] = biological target: T1, Toll-like receptor 8 (Homo sapiens, UniProt Q9NR97); test: Agonist activity at human TLR8 transfected in HEK-Blue hTLR8 cells; format: cell-based
T1 sequence (Q9NR97 whole entry): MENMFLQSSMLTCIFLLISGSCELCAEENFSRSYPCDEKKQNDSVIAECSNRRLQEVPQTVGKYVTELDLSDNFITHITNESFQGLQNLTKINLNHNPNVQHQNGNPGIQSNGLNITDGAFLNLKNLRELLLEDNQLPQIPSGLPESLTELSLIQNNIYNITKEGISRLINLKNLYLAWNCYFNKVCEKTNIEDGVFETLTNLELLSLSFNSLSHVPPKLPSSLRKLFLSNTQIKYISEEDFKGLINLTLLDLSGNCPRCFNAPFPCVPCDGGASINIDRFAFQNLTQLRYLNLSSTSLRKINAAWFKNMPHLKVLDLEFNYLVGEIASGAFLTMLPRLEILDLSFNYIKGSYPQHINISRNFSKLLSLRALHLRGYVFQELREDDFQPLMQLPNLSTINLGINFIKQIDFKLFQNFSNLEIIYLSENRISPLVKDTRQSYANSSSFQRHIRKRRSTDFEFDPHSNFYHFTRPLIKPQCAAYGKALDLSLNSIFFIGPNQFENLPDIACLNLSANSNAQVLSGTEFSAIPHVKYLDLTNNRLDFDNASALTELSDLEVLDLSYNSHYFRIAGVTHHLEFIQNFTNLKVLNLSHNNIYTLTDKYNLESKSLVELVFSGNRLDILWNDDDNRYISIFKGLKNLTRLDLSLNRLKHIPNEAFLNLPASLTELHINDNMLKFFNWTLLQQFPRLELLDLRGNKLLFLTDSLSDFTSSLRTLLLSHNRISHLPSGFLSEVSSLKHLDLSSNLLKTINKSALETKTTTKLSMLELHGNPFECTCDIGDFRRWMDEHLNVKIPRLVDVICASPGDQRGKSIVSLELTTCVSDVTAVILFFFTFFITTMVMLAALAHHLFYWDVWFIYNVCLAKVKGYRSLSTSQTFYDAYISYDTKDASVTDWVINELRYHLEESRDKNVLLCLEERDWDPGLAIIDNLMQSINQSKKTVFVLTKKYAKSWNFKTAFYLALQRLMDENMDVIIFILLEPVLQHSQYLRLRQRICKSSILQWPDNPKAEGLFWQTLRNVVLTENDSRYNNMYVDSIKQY

Toll-like receptor 7 = biological target: T2, Toll-like receptor 7 (Homo sapiens, UniProt Q9NYK1); test: Agonist activity at human TLR7 transfected in HEK-Blue hTLR7 cells; format: cell-based
T2 sequence (Q9NYK1 whole entry): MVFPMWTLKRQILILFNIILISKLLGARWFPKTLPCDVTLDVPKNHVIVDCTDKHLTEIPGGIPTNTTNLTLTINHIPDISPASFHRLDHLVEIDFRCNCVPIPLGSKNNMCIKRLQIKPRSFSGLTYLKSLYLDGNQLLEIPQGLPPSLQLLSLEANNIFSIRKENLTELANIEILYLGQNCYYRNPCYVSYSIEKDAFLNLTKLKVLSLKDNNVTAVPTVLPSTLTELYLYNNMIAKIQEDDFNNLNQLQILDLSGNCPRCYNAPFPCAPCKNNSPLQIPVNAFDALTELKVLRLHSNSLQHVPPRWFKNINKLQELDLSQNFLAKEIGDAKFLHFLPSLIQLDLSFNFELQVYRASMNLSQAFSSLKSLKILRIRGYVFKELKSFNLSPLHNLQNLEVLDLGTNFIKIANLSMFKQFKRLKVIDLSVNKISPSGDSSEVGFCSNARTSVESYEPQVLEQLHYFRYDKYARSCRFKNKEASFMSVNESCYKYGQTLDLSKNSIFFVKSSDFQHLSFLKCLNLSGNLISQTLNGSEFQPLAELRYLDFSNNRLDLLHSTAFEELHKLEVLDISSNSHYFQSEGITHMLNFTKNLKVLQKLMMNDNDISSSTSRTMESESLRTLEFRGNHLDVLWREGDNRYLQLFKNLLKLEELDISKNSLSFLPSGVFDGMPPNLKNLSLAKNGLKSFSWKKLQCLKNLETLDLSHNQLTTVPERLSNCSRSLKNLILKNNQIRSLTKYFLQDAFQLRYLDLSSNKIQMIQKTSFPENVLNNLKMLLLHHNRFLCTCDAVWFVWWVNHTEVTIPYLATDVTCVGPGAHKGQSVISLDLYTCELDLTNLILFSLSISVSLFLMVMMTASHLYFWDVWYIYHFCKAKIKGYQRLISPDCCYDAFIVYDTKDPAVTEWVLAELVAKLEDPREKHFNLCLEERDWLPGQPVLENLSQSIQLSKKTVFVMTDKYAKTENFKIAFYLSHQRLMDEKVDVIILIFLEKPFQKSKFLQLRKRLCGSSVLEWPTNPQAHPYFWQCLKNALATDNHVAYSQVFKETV

Toll-like receptor 8 [2] = biological target: T1, Toll-like receptor 8; test: Agonist activity in TLR8 (unknown origin) expressed in HEK293 cells assessed as induction of NF-kappa activation; format: cell-based
[3] = biological target: T3, Toll-like receptor 8 (Homo sapiens) (UniProt Q9NR97); test: (§1) Agonist activity at human TLR8; conditions: filed as agonist
T3 sequence (whole entry): T1 sequence (Q9NR97 whole entry)

B16 = test: Antitumor activity against mouse B16 cells xenografted in mouse assessed as inhibition of tumor growth at 2 mg measured after 3 days; format: functional; set-up: scale not given: the % may be the effect or the level left; conditions: time 3 day
Mus musculus = test: Potency index ratio of imiquimod MED to test compound MED for induction of IFN in po dosed mouse assessed as minimum effective dose; format: functional
Hepatitis C virus = test: Antiviral activity against HCV infected in human Huh-7 cells assessed as reduction in HCV level at 1 to 10 uM measured after 24 h by real-time PCR method; set-up: scale not given: the % may be the effect or the level left; conditions: dose 1-10 µM
Toll-like receptor 8 [4] = biological target: T1, Toll-like receptor 8; test: as §1
[5] = biological target: Mitogen-activated protein kinase 3 (Homo sapiens, UniProt P27361); test: Binding affinity to ERK1 (unknown origin) by surface plasmon resonance assay
[6] = Binding affinity to RasGAP (unknown origin) by surface plasmon resonance assay; set-up: species or system Homo sapiens

Sequence of Mitogen-activated protein kinase 3 (P27361 whole entry): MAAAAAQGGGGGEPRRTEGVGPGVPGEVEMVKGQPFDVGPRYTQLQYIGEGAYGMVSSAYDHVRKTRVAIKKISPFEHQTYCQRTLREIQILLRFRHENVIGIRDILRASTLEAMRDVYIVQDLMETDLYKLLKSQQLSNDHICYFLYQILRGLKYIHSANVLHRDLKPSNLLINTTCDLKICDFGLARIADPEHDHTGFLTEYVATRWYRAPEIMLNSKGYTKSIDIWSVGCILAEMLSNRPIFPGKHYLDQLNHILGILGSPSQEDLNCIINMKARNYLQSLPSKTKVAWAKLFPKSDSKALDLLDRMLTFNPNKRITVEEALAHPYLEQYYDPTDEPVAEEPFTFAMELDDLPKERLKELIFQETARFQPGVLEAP

CCOC(=O)C1=Cc2ccc(-c3cccc(C#N)c3)cc2N=C(N)C1
EC50 (Toll-like receptor 8 [1]): 30 nM
EC50 (Toll-like receptor 7): 15000 nM
EC50 (Toll-like receptor 8 [2]): 30 nM

CCCCc1nc2c(N)nc3cc(C(=O)OC)ccc3c2n1CCCCCN
EC50 [3]: 1600 nM

C=CCn1c(=O)n([C@@H]2O[C@H](CO)[C@@H](O)[C@H]2O)c2nc(N)[nH]c(=O)c21 [LOXORIBINE]
Activity (B16): 96%

COCCOc1nc(N)c2[nH]c(=O)n(Cc3ccccc3)c2n1
Ratio (Mus musculus): 100
Activity (Hepatitis C virus): 60%

CCCCc1nc2c(N)nc3ccccc3c2s1
EC50 (Toll-like receptor 8 [4]): 200 nM

Cc1cc(Nc2ncc3c(n2)N(C)C(=O)N(c2cc(NC(=O)c4cccc(C(F)(F)F)c4)ccc2C)C3)n(C)n1
Kd [5]: 98 nM
Kd [6]: 212 nM
